Patent publication US12662705B2, “Interferon pathway genes regulate and predict efficacy of immunotherapy” (THE TRUSTEES OF THE UNIVERSITY OF PENNSYLVANIA, priority 2018, dated 2026)
“Also recorded” adds a separate entry of the source.

Columns and labels:
[1] = total daily dose 1200 mg; cited from earlier work
JAK1 = JAK1 (Homo sapiens, UniProt P23458); settings: read-out: half maximal inhibitory concentration [IC50]; cited from earlier work
[2] = system: IFNGR knockout Res 499 tumors; assay: In vivo cytokine rescue studies in CD8 T cell-depleted mice; parameters: species or system mouse; settings: direct intratumoral injection
Procedure: In vivo cytokine rescue studies: All mice were pre-treated with anti-CD8 two days before tumor injection. Either 1 μg IFNg or 100 ng CXCL10 was mixed in the PBS/tumor cell suspension prior to injection of the tumor. Mice then continued receiving 500-1000 ng IFNG or 100 ng CXCL10 intra/peritumorally every 3 days post-tumor implantation. For flow cytometry experiments, mice were harvested at day 13 to examine the effects of cytokine addback on immune recruitment in the absence of CD8 T cells. For survival experiments, intra/peritumoral injections continued every 3 days for the remainder of the experiment.

[3] = system: PD-L1 positive advanced NSCLC; settings: cited from earlier work

Sequence of JAK1 (P23458 whole entry): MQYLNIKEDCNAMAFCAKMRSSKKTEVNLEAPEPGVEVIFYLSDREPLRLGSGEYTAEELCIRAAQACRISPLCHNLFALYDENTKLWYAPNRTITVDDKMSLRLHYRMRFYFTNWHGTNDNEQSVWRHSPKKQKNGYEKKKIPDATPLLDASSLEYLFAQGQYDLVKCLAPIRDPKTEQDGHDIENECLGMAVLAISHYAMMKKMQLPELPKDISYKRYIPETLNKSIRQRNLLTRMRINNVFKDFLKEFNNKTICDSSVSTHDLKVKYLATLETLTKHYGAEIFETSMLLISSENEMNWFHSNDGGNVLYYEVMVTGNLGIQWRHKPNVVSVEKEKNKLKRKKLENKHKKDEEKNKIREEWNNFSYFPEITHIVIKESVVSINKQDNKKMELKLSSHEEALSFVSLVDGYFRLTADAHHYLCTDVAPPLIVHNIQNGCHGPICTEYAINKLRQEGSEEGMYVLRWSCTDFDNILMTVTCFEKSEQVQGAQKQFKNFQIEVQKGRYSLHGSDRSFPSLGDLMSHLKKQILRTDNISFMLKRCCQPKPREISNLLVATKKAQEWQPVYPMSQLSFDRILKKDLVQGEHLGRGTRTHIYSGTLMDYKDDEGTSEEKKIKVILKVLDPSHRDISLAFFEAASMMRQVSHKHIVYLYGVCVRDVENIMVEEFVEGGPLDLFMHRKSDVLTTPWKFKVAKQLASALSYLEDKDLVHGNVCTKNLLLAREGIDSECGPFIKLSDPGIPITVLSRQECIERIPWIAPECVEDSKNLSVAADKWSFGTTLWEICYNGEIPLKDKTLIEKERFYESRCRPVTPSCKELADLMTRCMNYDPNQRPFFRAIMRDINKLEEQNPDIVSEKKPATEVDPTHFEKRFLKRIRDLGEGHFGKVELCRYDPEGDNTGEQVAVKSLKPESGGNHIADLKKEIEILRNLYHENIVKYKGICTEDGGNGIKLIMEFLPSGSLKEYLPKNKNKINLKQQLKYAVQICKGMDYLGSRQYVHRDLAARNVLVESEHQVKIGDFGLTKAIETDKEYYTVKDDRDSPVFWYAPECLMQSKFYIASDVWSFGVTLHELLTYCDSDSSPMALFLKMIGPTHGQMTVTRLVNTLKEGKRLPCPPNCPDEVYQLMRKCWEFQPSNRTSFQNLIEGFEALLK

In the case of `N#CCC1(n2cc(-c3ncnc4[nH]ccc34)cn2)CN(C2CCN(C(=O)c3ccnc(C(F)(F)F)c3F)CC2)C1` [Itacitinib], the “adverse events at highest total daily dose” value [1] is listed as “no adverse events” and the IC50 (JAK1) is listed as 3.6 nM.
For “CXCL10: IFNG-regulated CXCR3 ligand chemokine injected intra/peritumorally”, the “rescue of the decrease in NK/ILC frequency after CD8 T cell depletion” value [2] was “partially rescue”.
For “Pembrolizumab: humanized monoclonal antibody of the IgG4/kappa isotype blocking the interaction between PD-1 and its ligands”, the “overall and progression free survival versus platinum doublet chemotherapy” value ([3]; PD-L1 expression greater than or equal to 50%) is listed as “superior overall and progression free survival; also recorded: improve overall survival and progression free survival”, the response rate ([3]; first line NSCLC, tumors expressing high level of PD-L1 (>50%)) is listed as 44.8% and the ORR ([3]; untreated PD-L1 positive advanced NSCLC) is listed as 45%.
